Source: patent publication US12226396B2, “Gluconic acid derivatives for use in the treatment and/or prevention of microbial infections” (GEDEA BIOTECH AB, priority 2017, dated 2025)

Tests used:
[1] = tested on: Escherichia coli K12; assay: E. coli biofilm study in M9 medium (crystal violet); type: cell-based; conditions: for effect on growth (biomass): M9 medium, 24-48 hours; for biofilm lowered: pH 6.6
Protocol: The bacterial strain Escherichia coli K12 was used for the biofilm study. This strain was maintained on LB medium at 37° C. The biofilm was studied in synthetic medium M9 (×1 M9 minimal salts (Sigma M6030), 2 mM MgSO4, 0.1 mM CaCl2, and 0.2% glucose), which contained either phosphate buffer, citric acid, lactic acid, gluconic acid or glucono-O-lactone to obtain media with different pH (2.6-6.6).
The overnight culture of E. coli K12 (OD600˜5.0) was washed with sterile water and inoculated to the final concentration 0.2 OD/ml of M9 medium with different pH of different compounds. The biofilm development was studied in 96-well flat-bottom polystyrene microtiter plates (Sigma Aldrich, Corning® Costar® culture plates, CLS3596-50EA). The biofilm was stained with crystal violet.

[2] = tested on: Candida glabrata; assay: Biofilm formation assay (crystal violet); type: cell-based; conditions: for normalized biofilm (OD560) at pH 2.6: pH 2.6, 72 h treatment; for normalized biofilm (OD560) at pH 6.1: pH 6.1, 72 h treatment
Protocol: (§1) Yeast strains (Table 1) were grown at 37° C. in complete medium YPD (0.5% yeast extract, 1% peptone, 2% glucose) or minimal medium consisting of YNB (yeast nitrogen base without amino acids and ammonium sulphate, FORMEDIUM™, CYN0505) supplemented with 0.5% ammonium sulphate, 0.2% glucose and 100 mM L-proline. If needed 2% agar was used to solidify media. The liquid minimal medium (YNB (yeast nitrogen base without amino acids and ammonium sulphate, FORMEDIUM™, CYN0505) supplemented with 0.5% ammonium sulphate, 0.2% glucose and 100 mM L-proline) was used for biofilm assay (biofilm medium).
(§2) In the experiments on the impact of pH on biofilm the pH values (from 2.6 to 6.6) were obtained using either different potassium phosphate buffers at the final concentration 0.25 M, or by the addition of citric acid, lactic acid, and gluconic acid to the biofilm medium.
(§3) Biofilm was measured in liquid culture as described [K. Scherz et al., G3 (Bethesda), 2014, 4, 1671-1680. I. Serrano-Fujarte et al. Biomed Res Int. 2015; 2015:783639] with some modifications. Prior the biofilm assay, yeast cultures were grown in liquid YPD medium for 24 hours until stationary phase (OD600 11-17)^2, cells were then pelleted by centrifugation (1699 g), washed with sterile water and cells were further inoculated into test biofilm medium (YNB (yeast nitrogen base without amino acids and ammonium sulphate) supplemented with 0.5% ammonium sulphate, 0.2% glucose and 100 mM L-proline pH7.0) at final concentration 0.2 OD600/ml and incubated in 96-well flat-bottom polystyrene microtiter plates (Sigma Aldrich, Corning® Costar® culture plates, CLS3596-50EA) for 72 hours at 37° C. thermostat. At defined time points crystal violet (HT901-8FOZ; Sigma Aldrich) was added to the media at the final concentration 0.05%, in addition total biomass was measured. After 24 hours of cells staining, plate wells were washed four times with 200 μl of water to remove planktonic cells, biofilms were then dried and dissolved in 200 μl of 96% ethanol. Total biomass and crystal violet biofilm staining measurements were performed at OD560 with FLUOstar OPTIMA plate reader, BMG LABTECH. Crystal violet biofilm measurements were normalized to the total biomass (OD560Biofilm/OD560 total biomass).
Candida glabrata is much more complicated to treat, compared to Candida albicans. However, a clear effect is obtained by longer treatment, i.e. 72 h with gluconic acid (Table 4).

[3] = tested on: Candida albicans; assay: Biofilm formation assay (crystal violet); type: cell-based; conditions: for normalized biofilm (% of control): 0.06 wt % acid, unbuffered, biofilm measured after 24 h; for normalized biofilm (OD560) at pH 6.1: pH 6.1, 24 h treatment; for normalized biofilm (OD560) at pH 2.6: pH 2.6, 24 h treatment
Protocol: as §1, §2, §3
(§4) To compare the effects of different hydroxylated carboxylic acids at low concentrations, the biofilm formation was measured 24 h after addition of 0.06 wt % of glyceric acid, xylonic acid, citric acid, gluconic acid, and lactic acid, under unbuffered conditions.
In order to further evaluate the effect of gluconic acid in preventing biofilm formation, the biofilm formation at different pH were determined (as described in Example 1) for gluconic acid, lactic acid and citric acid.

[4] = Resulting pH of biofilm medium after addition of hydroxylated carboxylic acid; type: physicochemical; conditions: 0.06% acid in biofilm medium, unbuffered
Protocol: as §4

Compound | resulting pH [4] | effect on growth (biomass) [1] | biofilm lower compared to the phosphate medium ([1]; pH 2.6) [fold] | biofilm lower compared to the phosphate medium ([1]; pH 3.0) [fold] | biofilm lowered [1] [fold] | normalized biofilm (OD560) at pH 2.6 [2] [OD560] | normalized biofilm (OD560) at pH 6.1 [2] [OD560] | normalized biofilm (% of control) [3] | less biofilm formation on replacing lactic acid by gluconic acid ([3]; 0.06 wt %, 24 h, 6% vs 13% of control) [%] | normalized biofilm (OD560) at pH 6.1 [3] [OD560] | normalized biofilm (OD560) at pH 2.6 [3] [OD560]
O=C(O)[C@H](O)[C@@H](O)[C@H](O)[C@H](O)CO [gluconic acid] | 6.5 | inhibiting effect on the growth | 38 | 15 | ~2 | 0.07 | 1.6 | 6 % of control | > 50 | 0.17 | 
O=C(O)CC(O)(CC(=O)O)C(=O)O [citric acid] | 4.6 | inhibiting effect on the growth |  |  |  | 1.0 | 2.9 | 14 % of control |  | 4.6 | 0.34

Further lines, with some results ahead:

resulting pH [4] | Compound | effect on growth (biomass) [1] | biofilm lower compared to the phosphate medium ([1]; pH 2.6) [fold] | biofilm lower compared to the phosphate medium ([1]; pH 3.0) [fold] | biofilm lowered [1] [fold] | normalized biofilm (OD560) at pH 2.6 [2] [OD560] | normalized biofilm (OD560) at pH 6.1 [2] [OD560] | normalized biofilm (% of control) [3] | less biofilm formation on replacing lactic acid by gluconic acid ([3]; 0.06 wt %, 24 h, 6% vs 13% of control) [%] | normalized biofilm (OD560) at pH 6.1 [3] [OD560] | normalized biofilm (OD560) at pH 2.6 [3] [OD560]
7.0 | O=C(O)[C@H](O)[C@@H](O)[C@H](O)CO [xylonic acid] |  |  |  |  |  |  | 31 % of control |  |  | 
4.9 | CC(O)C(=O)O (centres unmarked) [lactic acid] | inhibiting effect on the growth |  |  | ~2 | 0.9 | 2.8 | 13 % of control |  | 3.1 | 1.6
7.0 | O=C(O)C(O)CO (centres unmarked) [glyceric acid] |  |  |  |  |  |  | 40 % of control |  |  | 
